# Patent US7265130B2, “NPY Y5 antagonist” (Shionogi & Co., Ltd., priority 1999, dated 2007)
# Assays:
# human NPY Y5 receptor [1] = biological target: T1, human NPY Y5 receptor (Homo sapiens, UniProt Q15761); assay: cAMP production inhibitory activity in CHO cells; format: cell-based; settings: against 50 nM NPY inhibition of forskolin stimulated cAMP, CHO cells expressing human NPY Y5 receptor
# T1 construct: expressed in transfected cells
# T1 sequence (Q15761 1-445): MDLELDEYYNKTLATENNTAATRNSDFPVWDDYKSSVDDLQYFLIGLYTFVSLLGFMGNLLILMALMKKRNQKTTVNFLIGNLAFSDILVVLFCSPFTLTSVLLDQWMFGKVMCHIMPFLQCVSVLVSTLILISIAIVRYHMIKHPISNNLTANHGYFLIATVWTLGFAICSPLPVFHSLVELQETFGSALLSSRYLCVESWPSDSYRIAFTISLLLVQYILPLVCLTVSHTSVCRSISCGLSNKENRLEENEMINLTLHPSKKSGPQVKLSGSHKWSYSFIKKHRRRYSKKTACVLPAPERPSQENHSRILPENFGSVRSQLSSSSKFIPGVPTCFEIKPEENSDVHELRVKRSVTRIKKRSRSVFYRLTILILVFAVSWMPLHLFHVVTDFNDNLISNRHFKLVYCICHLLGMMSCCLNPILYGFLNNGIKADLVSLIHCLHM
# Description: Experiment 2 cAMP production inhibitory activity in CHO cells
# After CHO cells expressing human NPY Y5 receptor were incubated in the presence of 2.5 mM isobutylmethylxanthine (SIGMA) at 37° C. for 20 min., the compound of the present invention was added and incubated for 5 min. Then, 50 nM NPY and 10 μM forskolin (SIGMA) were added to the cells and incubated for 30 min. After the reaction was terminated by adding 1N HCl, the amount of cAMP in the supernatant was measured with EIA kit (Amersham LIFE SCIENCE).
# human NPY Y5 receptor [2] = biological target: T1, human NPY Y5 receptor; assay: Affinity for NPY Y5 receptor ([125I] peptide YY binding, CHO cell membranes); settings: inhibition of specific [125I] peptide YY binding, membranes of CHO cells expressing NPY Y5 receptor
# From the text: Experiment 1 Affinity for NPY Y5 Receptor
# cDNA sequence encoding a human NPY Y5 receptor (WO096/16542) was cloned in the expression vector pME18S (Takebe et al. Mol. Cell. Biol. 8, 8957). The obtained expression vector was transfected into a host CHO cells by using a Lipofect AMINE reagent (Trademark, Gibco BRL Co., Ltd.) according to an instruction protocol to obtain the cells that stably express NPY Y5 receptor.
# The membranes prepared from the above CHO cells expressing NPY Y5 receptor, the compound of the present invention and 30,000 cpm [^125I] peptide YY (60 pM of final concentration: Amersham) were incubated in the assay buffer (20 mM HEPES-Hanks buffer containing 0.1% bovine serum albumin, pH 7.4) at 25° C. for 2 hours, and then the mixture was filtered with a glassfilter GF/C treated with polyethyleneimine. After the glassfilter was washed with 50 mM Tris-HCl buffer (pH 7.4), the radioactivity on the filter was measured with a gamma counter. The non-specific binding was detected in the presence of 200 nM of peptide YY. The 50% inhibitory concentration of the test compound against the specific peptide YY binding (IC50 value) was calculated (Inui, A. et al. Endocrinology 131, 2090-2096 (1992)).
SMILES,IC50 (human NPY Y5 receptor [1]) [nM],IC50 (human NPY Y5 receptor [2]) [nM]
CCCCc1ccc(C(=O)Nc2ccc(NS(=O)(=O)C(C)C)cc2)cc1 [Compound I-2],72,7.5
CCCCc1ccc(NC(=O)CCCCNS(=O)(=O)C(C)C)cc1 [Compound I-7],< 10,3
CCCCc1ccc(NC(=O)CCCCNS(=O)(=O)C(C)(C)C)cc1 [Compound I-11],5,1.3
CCCCc1ccc(C(=O)NCCCCNS(=O)(=O)C(C)(C)C)cc1 [Compound I-20],21,7
CCCCc1ccc(NC(=O)C2CCC(CNS(=O)(=O)C(C)(C)C)CC2)cc1 (stereo not shown) [Compound I-24],71,9.6
CC(C)(C)S(=O)(=O)NC1CCC(C(=O)Nc2ccc(Oc3ccccc3)cc2)CC1 (stereo not shown) [Compound I-50],8.4,0.3
CC(C)(C)S(=O)(=O)NC1CCC(C(=O)Nc2ccc(N3CCN(c4ccccc4)CC3)cc2)CC1 (stereo not shown) [Compound I-53],21,4.1
CCOC(=O)C1CCN(c2ccc(NC(=O)C3CCC(NS(=O)(=O)C(C)(C)C)CC3)cc2)CC1 (stereo not shown) [Compound I-57],47,4.8
CC(C)(C)S(=O)(=O)NC1CCC(C(=O)Nc2ccc(N3CCc4ccccc4C3)cc2)CC1 (stereo not shown) [Compound I-60],18,0.69
CC(C)(C)S(=O)(=O)NC1CCC(C(=O)Nc2ccc(-c3ccc(N4CCCCC4)cc3)cc2)CC1 (stereo not shown) [Compound I-65],72,1.8
CC(C)(C)S(=O)(=O)NC1CCC(C(=O)Nc2ccc(N3CCc4ccccc43)cc2)CC1 (stereo not shown) [Compound I-75],3.4,0.55
CC(C)(C)S(=O)(=O)NC1CCC(C(=O)Nc2ccc(-n3ccc4ccccc43)cc2)CC1 (stereo not shown) [Compound I-76],5.5,0.61
CC(C)(C)S(=O)(=O)NC1CCC(C(=O)Nc2ccc(Nc3ccccc3)cc2)CC1 (stereo not shown) [Compound I-83],29,0.61
CC(C)(C)S(=O)(=O)NC1CCC(C(=O)Nc2ccc(N(CCO)CCO)cc2)CC1 (stereo not shown) [Compound I-86],100,3.4
CCCCc1ccc(NC(=O)c2ccc(N[S+]([O-])C(C)(C)Cl)cc2)cc1 (stereo not shown) [Compound I-92],61,7
CCCCc1ccc(NC(=O)c2ccc(N[S+]([O-])C(C)(C)C)cc2)cc1 (stereo not shown) [Compound I-101],38,3.9
CCCCc1ccc(NC(=O)c2ccc(NS(=O)(=O)C(C)(C)C)cc2)cc1 [Compound I-102],14,1.7
CCCCc1ccc(NC(=O)c2ccc(NS(=O)(=O)C(C)(C)Cl)cc2)cc1 [Compound I-106],29,6.4
CCCCc1ccc(NC(=O)CCCCNS(=O)(=O)C(C)(C)CC)cc1 [Compound I-109],3.2,1.2
CCCCc1ccc(NC(=O)CCCCNS(=O)(=O)CC(C)C)cc1 [Compound I-110],13.6,4.3

SMILES,IC50 (human NPY Y5 receptor [1]) [nM],IC50 (human NPY Y5 receptor [2]) [nM]
CCCCc1ccc(NC(=O)CCCCNS(=O)(=O)C(C)CC)cc1 (stereo not shown) [Compound I-111],6.1,1.8
CCCCc1ccc(NC(=S)CCCCNS(=O)(=O)CC(C)C)cc1 [Compound I-114],30,7
CCCCOc1ccc(NC(=O)CCCCNS(=O)(=O)C(C)CC)cc1 (stereo not shown) [Compound I-116],11,1.2
CC(C)(C)S(=O)(=O)NC1CCC(C(=O)Nc2ccc(-c3ccc(-c4ccccc4)cc3)cc2)CC1 (stereo not shown) [Compound I-136],–,2.8
CC(C)S(=O)(=O)N[C@H]1CC[C@H](C(=O)Nc2ccc3oc(=O)ccc3c2)CC1 [Ia-76],–,2.2
CC(C)(C)S(=O)(=O)N[C@H]1CC[C@H](C(=O)Nc2ccc3c(c2)C(=O)N(c2ccccc2)C3=O)CC1 [Ia-79],–,0.82
CC(C)S(=O)(=O)NC1CCC(C(=O)Nc2ccc(-c3ncco3)cc2)CC1 (stereo not shown) [Ia-184],–,0.38
Cc1cc(=O)oc2cc(NC(=O)[C@H]3CC[C@H](NS(=O)(=O)C(C)C)CC3)ccc12 [Ia-227],–,0.59
Cc1cc(=O)oc2cc(NC(=O)CCCCNS(=O)(=O)C(C)(C)C)ccc12 [Ia-228],–,0.96
Cc1cc(=O)oc2cc(NC(=O)CCCCNS(=O)(=O)C(C)C)ccc12 [Ia-229],–,1.9
CC(C)CN1C(=O)c2ccc(NC(=O)[C@H]3CC[C@H](NS(=O)(=O)C(C)(C)C)CC3)cc2C1=O [Ia-230],–,0.32
CC(C)CN1C(=O)c2ccc(NC(=O)[C@H]3CC[C@H](NS(=O)(=O)C(C)C)CC3)cc2C1=O [Ia-231],–,0.29
CC(C)CN1C(=O)c2ccc(NC(=O)CCCCNS(=O)(=O)C(C)(C)C)cc2C1=O [Ia-232],–,0.7
CC(C)CN1C(=O)c2ccc(NC(=O)CCCCNS(=O)(=O)C(C)C)cc2C1=O [Ia-233],–,0.63
CC(C)S(=O)(=O)NC1CCC(C(=O)Nc2ccc(OC(C)(C)C)cc2)CC1 (stereo not shown) [Ia-252],–,1.2
CC(C)(C)Oc1ccc(NC(=O)CCCCNS(=O)(=O)C(C)(C)C)cc1 [Ia-253],–,0.53
CC(C)(C)S(=O)(=O)NCCCCC(=O)Nc1ccc(N2CCCS2(=O)=O)cc1 [Ia-255],–,3.2
CC(C)(C)S(=O)(=O)NCCCCC(=O)Nc1ccc(OC2CCOCC2)cc1 [Ia-257],–,8.6
CC(C)S(=O)(=O)NC1CCC(C(=O)Nc2ccc(OC3CCOCC3)cc2)CC1 (stereo not shown) [Ia-258],–,1.8

# Continued, values first:
IC50 (human NPY Y5 receptor [1]) [nM],IC50 (human NPY Y5 receptor [2]) [nM],SMILES
29,4.4,CCCCc1ccc(NC(=O)C2CCC(NS(=O)(=O)C(C)(C)C)CC2)cc1 (stereo not shown) [Compound I-18]
51,8.6,CCCCc1ccc(NC(=O)C2CCC(NS(=O)(=O)C(C)(C)C)CC2)cc1 (stereo not shown) [Compound I-22]
2.6,0.6,CCCCc1ccc(NC(=O)C2CCC(NS(=O)(=O)C(C)(C)C)CC2)cc1 (stereo not shown) [Compound I-25]
13.4,1,CCN(CC)c1ccc(NC(=O)C2CCC(NS(=O)(=O)C(C)(C)C)CC2)cc1 (stereo not shown) [Compound I-44]
40,9,CC(C)(C)S(=O)(=O)NC1CCC(C(=O)Nc2ccc(N3CCN(c4ncccn4)CC3)cc2)CC1 (stereo not shown) [Compound I-55]
16,0.58,CC(C)(C)S(=O)(=O)NC1CCC(C(=O)Nc2ccc(-n3cnc(Cl)c3Cl)cc2)CC1 (stereo not shown) [Compound I-62]
17,2,CC(=O)Nc1cccc(NC(=O)C2CCC(NS(=O)(=O)C(C)(C)C)CC2)c1 (stereo not shown) [Compound I-67]
28,1.8,CC(C)(C)S(=O)(=O)NC1CCC(C(=O)Nc2ccc(-n3cccn3)cc2)CC1 (stereo not shown) [Compound I-77]
25,0.59,CC(C)(C)S(=O)(=O)NC1CCC(C(=O)Nc2ccc(-c3csnn3)cc2)CC1 (stereo not shown) [Compound I-79]
25,1.3,CC(C)(C)S(=O)(=O)NC1CCC(C(=O)Nc2ccc(-n3ncnn3)cc2)CC1 (stereo not shown) [Compound I-84]
21,0.66,COC(=O)CCCc1ccc(NC(=O)C2CCC(NS(=O)(=O)C(C)(C)C)CC2)cc1 (stereo not shown) [Compound I-87]
50,2.8,CC(C)(C)S(=O)(=O)NC1CCC(C(=O)Nc2ccc(N3CCC(O)C3)cc2)CC1 (stereo not shown) [Compound I-90]
–,1.8,COc1ccc(Cl)cc1NC(=O)C1CCC(NS(=O)(=O)C(C)(C)C)CC1 (stereo not shown) [Ia-35]
–,0.55,CC(C)(C)S(=O)(=O)NC1CCC(C(=O)Nc2cccc(-c3ccco3)c2)CC1 (stereo not shown) [Ia-209]
–,5.5,CC(C)(C)S(=O)(=O)NC1CCC(C(=O)Nc2nc3ccccc3s2)CC1 (stereo not shown) [Ia-235]
–,1.9,CC(C)(C)S(=O)(=O)NC1CCN(C(=O)Nc2ccc(C(F)(F)F)cn2)CC1 [Ia-241]
–,1.3,Cc1cc(C(=O)NC(C)C)ccc1NC(=O)N1CCC(NS(=O)(=O)C(C)(C)C)CC1 [Ia-243]
–,1.9,CC(C)(C)S(=O)(=O)NC1CCC(C(=O)Nc2ccc3occc3c2)CC1 (stereo not shown) [Ia-250]
–,2,CC(C)(C)Oc1ccc(NC(=O)N2CCC(NS(=O)(=O)C(C)(C)C)CC2)cc1 [Ia-254]
–,5.7,CC(C)(C)S(=O)(=O)NC1CCN(C(=O)Nc2ccc(N3CCCS3(=O)=O)cc2)CC1 [Ia-256]
